Measured values reported in patent US20210161997A1, “TREATING DISEASES VIA TARGETED MODULATION OF GENE SIGNALING NETWORKS” (Camp4 Therapeutics Corporation, priority 2018, published 2021).
Structures can show the parent of a compound that is named as a salt.

Experiments:
Assay type in all cases: cell-based
[1] = system: MECP2 mRNA; test: MECP2 mRNA in primary human hepatocytes (donor 1, donor 2); conditions: average fold change; for Human hep donor-1 MECP2 (Avg_FC) 1 uM / Human hep donor-1 MECP2 (Avg_FC) 10 uM: human hepatocytes donor-1; for Human hep donor-1 MECP2 (Avg_FC) 1 uM / Human hep donor-2 MECP2 (Avg_FC) 1 uM: compound 1 uM; for Human hep donor-1 MECP2 (Avg_FC) 10 uM / Human hep donor-2 MECP2 (Avg_FC) 10 uM: compound 10 uM; for Human hep donor-2 MECP2 (Avg_FC) 1 uM / Human hep donor-2 MECP2 (Avg_FC) 10 uM: human hepatocytes donor-2
Description: (§1) Human hepatocytes were obtained from two donors from Massachusetts General Hospital, namely MGH54 and MGH63, and one donor from Lonza, namely HUM4111B. Cryopreserved hepatocytes were cultured in plating media for 16 hours, transferred to maintenance media for 4 hours. Cultured on serum-free media for 2 hours, then a compound was added. The hepatocytes were maintained on the serum-free media for 16 hours prior to gene expression analysis. Primary human hepatocytes were stored in the vapor phase of a liquid nitrogen freezer (about −130° C.).
(§2) Human hepatocytes cultured as described above were plated in 24-well format, adding 375,000 cells per well in a volume of 500 ul plating medium. Four hours before treatment, cells were washed with PBS and the medium was changed to either: fresh maintenance medium (complete) or modified maintenance medium.
(§3) Compound stocks were prepared at 1000× final concentration and added in a 2-step dilution to the medium to reduce risk of a compound precipitating out of solution when added to the cells, and to ensure reasonable pipetting volumes. One at a time, each compound was first diluted 10-fold in warm (about 37° C.) modified maintenance medium (initial dilution=ID), mixed by vortexing, and the ID was diluted 100-fold into the cell culture (e.g. 5.1 ul into 1 well of a 24-well plate containing 0.5 mL medium). The plate was mixed by carefully swirling and after all wells were treated and returned to the incubator overnight. If desired, separate plates/wells were treated with vehicle-only controls and/or positive controls. If using multi-well plates, controls were included on each plate. After about 18 hours, cells were harvested for further analysis, e.g., ChIP-seq, RNA-seq, ATAC-seq, etc.
Samples were amplified using Taqman probes from ThermoFisher.

[2] = system: MECP2 mRNA; test: MECP2 mRNA in stellate cells; conditions: average fold change; for Stellate MECP2 (Avg_FC) 1 uM: compound 1 uM; for Stellate MECP2 (Avg_FC) 10 uM: compound 10 uM
[3] = system: UGT1A1; test: RNA-seq of UGT1A1 expression in compound-treated primary human hepatocytes
Description: as §1, §2, §3
This protocol is a modified version of the following protocols: MagMAX mirVana Total RNA Isolation Kit User Guide (Applied Biosystems #MAN0011131 Rev B.0), NEBNext Poly(A) mRNA Magnetic Isolation Module (E7490), and NEBNext Ultra Directional RNA Library Prep Kit for Illumina (E7420) (New England Biosystems #E74901).
The MagMAX mirVana kit instructions (the section titled “Isolate RNA from cells” on pages 14-17) were used for isolation of total RNA from cells in culture. Two hundred μl of Lysis Binding Mix was used per well of the multiwell plate containing adherent cells (usually a 24-well plate).
For mRNA isolation and library prep, the NEBNext Poly(A) mRNA Magnetic Isolation Module and Directional Prep kit was used. RNA isolated from cells above was quantified, and prepared in […] of each sample in 50 μl of nuclease-free water. This protocol may be run in microfuge tubes or in a 96-well plate.
Standard QC were applied (read integrity, mapping statistics, library complexity, fragment bias) to remove unsatisfactory samples. […] Log 2 fold change and significance values were computed using PME count data (with replicates explicitly modeled versus pan-experiment controls), median ratio normalized, using maximum likelihood estimation rather than maximum a posteriori, and disabling the use of Cook's distance cutoff when determining acceptable adjusted p-values. […] RNA-seq signals were also normalized by read depth and visualized using the UCSC browser.
To identify small molecules that modulate target gene expression, primary human hepatocytes were prepared as a monoculture, and at least one small molecule compound was applied to the cells.
RNA-seq was performed to determine the effects of the compounds on the expression of the target genes in hepatocytes. Fold change was calculated by dividing the level of expression in the cell system that had been perturbed by the level of expression in an unperturbed system. Changes in expression having a p-value ≤0.05 were considered significant.
Significance was defined as an FPKM ≥1, a log 2(fold change) ≥0.5, and a q-value of ≤0.05 for all targets except for CPOX.

| Molecule | UGT1A1 Fold Change (Log2) [3] [Log2] | other results |
| --- | --- | --- |
| C=CCNC1=C2C[C@@H](C)C[C@H](OC)[C@H](O)[C@@H](C)/C=C(\C)[C@H](OC(N)=O)[C@@H](OC)/C=C\C=C(/C)C(=O)NC(=CC1=O)C2=O [17-AAG (Tanespimycin)/KOS-953] |  | Human hep donor-1 MECP2 (Avg_FC) 1 uM [1]: 1.63; Human hep donor-1 MECP2 (Avg_FC) 10 uM [1]: 2.80; Stellate MECP2 (Avg_FC) 1 uM [2]: 2.43; Stellate MECP2 (Avg_FC) 10 uM [2]: 2.21 |
| CNC(=O)c1ccc(N2C(=S)N(c3cnc(C#N)c(C(F)(F)F)c3)C(=O)C23CCC3)cc1F [ARN-509] | 1.16 |  |
| Cc1cc(Nc2nc(N[C@@H](C)c3ncc(F)cn3)ncc2Cl)[nH]n1 [AZD1480] | 0.93 |  |
| C[C@@H]1COCCN1c1cc(C2([S@](C)(=N)=O)CC2)nc(-c2cc[nH]c3nccc2-3)n1 [AZD6738] | 1.03 |  |
| O=C1Nc2cc(Br)ccc2/C1=C1/Nc2ccccc2/C1=N\O [BIO] | 0.62 |  |
| Cc1ccc(-n2nc(C(C)(C)C)cc2NC(=O)Nc2ccc(OCCN3CCOCC3)c3ccccc23)cc1 [BIRB 796] | 1.04 |  |
| CCOc1ccn(-c2ccc(F)cc2)c(=O)c1C(=O)Nc1ccc(Oc2ccnc(N)c2Cl)c(F)c1 [BMS 777607] |  | Human hep donor-2 MECP2 (Avg_FC) 1 uM [1]: 1.35; Human hep donor-2 MECP2 (Avg_FC) 10 uM [1]: 3.04; Stellate MECP2 (Avg_FC) 1 uM [2]: 0.97; Stellate MECP2 (Avg_FC) 10 uM [2]: 1.92 |
| C[C@@]1(C(=O)Nc2ccc(F)nc2)CCCN1c1nc(Nc2cc(C3CC3)n[nH]2)c2cccn2n1 [BMS-754807] | 1.33 |  |
| C=C(c1ccc(C(=O)O)cc1)c1cc2c(cc1C)C(C)(C)CCC2(C)C [Bexarotene] | 1.29 |  |
| c1cc(OCCN2CCCCC2)cc(-c2n[nH]c3ccc(-c4nc[nH]n4)cc23)c1 [CC-401 hydrochloride] |  | Human hep donor-1 MECP2 (Avg_FC) 1 uM [1]: 1.84; Human hep donor-1 MECP2 (Avg_FC) 10 uM [1]: 2.03; Stellate MECP2 (Avg_FC) 1 uM [2]: 1.92; Stellate MECP2 (Avg_FC) 10 uM [2]: 2.69 |
| C[C@H]1COC2=C1C(=O)C(=O)c1c2ccc2c1CCCC2(C)C [Cryptotanshinone] | 0.93 |  |
| Cc1nc(Nc2ncc(C(=O)Nc3c(C)cccc3Cl)s2)cc(N2CCN(CCO)CC2)n1 [Dasatinib] | 0.67 |  |
| CC[C@@](C)(Nc1ccnc(-c2c[nH]c3ncccc23)n1)C(=O)NCC(F)(F)F [Decernotinib] | 0.58 |  |
| c1cc(-c2cnn3cc(-c4ccc(OCCN5CCCCC5)cc4)cnc23)ccn1 [Dorsomorphin] | 0.57 |  |
| C=C1/C(=C\C=C2/CCC[C@]3(C)[C@@H]([C@H](C)/C=C/C=C/C(O)(CC)CC)CC[C@@H]23)C[C@@H](O)C[C@@H]1O [EB1089] | 0.88 |  |
| Cc1cc(C)c2c(c1)[C@@H](N(Cc1cc(C(F)(F)F)cc(C(F)(F)F)c1)c1nnn(C)n1)CCCN2C[C@H]1CC[C@H](C(=O)O)CC1 [Evacetrapib] | 0.78 |  |
| CCn1c(=O)c(-c2ccc(-c3cncs3)cc2Cl)cc2cnc(Nc3ccc(N4CCN(C)CC4)cc3)nc21 [FRAX597] | 0.61 |  |
| OCCn1cc(-c2ccc3c(c2)CC/C3=N\O)c(-c2ccncc2)n1 [GDC-0879] | 0.55 |  |
| CC(C)c1onc(-c2c(Cl)cccc2Cl)c1COc1ccc(/C=C/c2cccc(C(=O)O)c2)c(Cl)c1 [GW4064] | 0.92 |  |
| CCC1=C(C)CN(C(=O)NCCc2ccc(S(=O)(=O)NC(=O)N[C@H]3CC[C@H](C)CC3)cc2)C1=O [Glimepiride] | 0.96 |  |
| COc1cccc(-c2cc(F)ccc2[C@H]2Cc3nc(N)nc(C)c3C(=O)N2)n1 [HSP-990] |  | Human hep donor-1 MECP2 (Avg_FC) 1 uM [1]: 2.54; Human hep donor-1 MECP2 (Avg_FC) 10 uM [1]: 2.72; Human hep donor-2 MECP2 (Avg_FC) 1 uM [1]: 1.27; Human hep donor-2 MECP2 (Avg_FC) 10 uM [1]: 1.66; Stellate MECP2 (Avg_FC) 1 uM [2]: 1.98; Stellate MECP2 (Avg_FC) 10 uM [2]: 1.99 |

| Molecule | UGT1A1 Fold Change (Log2) [3] [Log2] | other results |
| --- | --- | --- |
| CC(C)n1nc(-c2ccc3oc(N)nc3c2)c2c(N)ncnc21 [INK-128] |  | Human hep donor-2 MECP2 (Avg_FC) 1 uM [1]: 2.16; Human hep donor-2 MECP2 (Avg_FC) 10 uM [1]: 2.52; Stellate MECP2 (Avg_FC) 1 uM [2]: 1.33; Stellate MECP2 (Avg_FC) 10 uM [2]: 2.42 |
| Cc1ccc2nc(NC(=O)CSc3nc4c(c(=O)n3-c3ccccc3)SCC4)sc2c1 [IWP-2] | 0.64 |  |
| NC(=O)c1ccc(I)c([N+](=O)[O-])c1 [Iniparib (BSI-201)] |  | Human hep donor-1 MECP2 (Avg_FC) 1 uM [1]: 2.28; Human hep donor-1 MECP2 (Avg_FC) 10 uM [1]: 2.15; Stellate MECP2 (Avg_FC) 1 uM [2]: 2.39; Stellate MECP2 (Avg_FC) 10 uM [2]: 2.26 |
| Cn1cc(-c2ccc3nnc(C(F)(F)c4ccc5ncccc5c4)n3n2)cn1 [JNJ-38877605] | 1.09 |  |
| O=C(O)c1ccccc1C(=O)Nc1ccc(-c2ccccc2)cc1 [Kartogenin] | 2.24 |  |
| CC(=O)c1cccc(-c2cccc(-c3ccn(CCN4CCOCC4)n3)c2)c1 [LRH-1 antagonist] | 0.91 |  |
| CN(C)C[C@@H]1CCn2cc(c3ccccc32)C2=C(C(=O)NC2=O)c2cn(c3ccccc23)CCO1.Cl [LY333531 HCl] |  | Human hep donor-1 MECP2 (Avg_FC) 1 uM [1]: 1.44; Human hep donor-1 MECP2 (Avg_FC) 10 uM [1]: 2.14; Stellate MECP2 (Avg_FC) 1 uM [2]: 1.26; Stellate MECP2 (Avg_FC) 10 uM [2]: 2.15 |
| Cn1cc(-c2ccc(F)c(C(F)(F)F)c2)nc1C1CCN(c2ncnc3[nH]ncc23)CC1 [LY2584702] | 0.76 |  |
| Cc1ccc(C(=O)OCc2ccc([C@@H](CN)C(=O)Nc3ccc4cnccc4c3)cc2)c(C)c1 [Netarsudil] | 0.85 |  |
| COc1ccc2[nH]c([S+]([O-])Cc3ncc(C)c(OC)c3C)nc2c1 (stereo not shown) [Omeprazole] | 1.09 |  |
| COc1cc2c(cc1OC)-c1c(OC)c(OC)cc3ccnc(c13)C2=O [Oxoglaucine] | 0.83 |  |
| CNC(=O)c1ccccc1Nc1cc(Nc2ccc(N3CCOCC3)cc2OC)ncc1C(F)(F)F [PND-1186] | 0.90 |  |
| CC(C)(C(=O)NCC(F)(F)C(F)(F)F)C(=O)N[C@@H]1C(=O)Nc2ccccc2-c2ccccc21 [RO4929097] | 1.06 |  |
| CCCn1c(=O)c2[nH]c(C34CC5CC(CC3C5)C4)nc2n(CCC)c1=O [Rolofylline (KW-3902), Rolofylline] | 0.66 |  |
| CC(C)[C@H](O)C(=O)N[C@@H](C)C(=O)N[C@@H]1C(=O)N(C)CCc2ccccc21 [Semagacestat] | 1.01 |  |
| BAM7 | 1.66 |  |
| Pifithrin-a | 1.44 |  |
| meBIO | 1.98 |  |
| Anti mullerian hormone: TGF-beta activator (protein, UniProt P03971 452-560, looked up) Muellerian-inhibiting factor: SAGATAADGPCALRELSVDLRAERSVLIPETYQANNCQGVCGWPQSDRNPRYGNHVVLLLKMQVRGAALARPPCCVPTAYAGKLLISLSEERISAHHVPNMVATECGCR | 0.59 |  |
| Wnt3a: FRIZZLED activator (protein, UniProt P56704 19-352, looked up) Protein Wnt-3a: SYPIWWSLAVGPQYSSLGSQPILCASIPGLVPKQLRFCRNYVEIMPSVAEGIKIGIQECQHQFRGRRWNCTTVHDSLAIFGPVLDKATRESAFVHAIASAGVAFAVTRSCAEGTAAICGCSSRHQGSPGKGWKWGGCSEDIEFGGMVSREFADARENRPDARSAMNRHNNEAGRQAIASHMHLKCKCHGLSGSCEVKTCWWSQPDFRAIGDFLKDKYDSASEMVVEKHRESRGWVETLRPRYTYFKVPTERDLVYYEASPNFCEPNPETGSFGTRDRTCNVSSHGIDGCDLLCCGRGHNARAERRREKCRCVFHWCCYVSCQECTRVYDVHTCK | 0.59 |  |
